Experimental data reported in PMC9127750, “Structure-based design of CDC42 effector interaction inhibitors for the treatment of cancer” (Cell reports, 2022).
Several values for one entry are separate records, joined by “and”; a condition that tells them apart may be missing. Identical values can stand only once.

Test system: WM3248 melanoma cells, 486 antibodies
Assay: Reverse phase protein arrays (RPPA)
Type: cell-based, Human
Description: Pellets were snap frozen in liquid nitrogen and shipped to MD Anderson Cancer Center core RPPA facility for RPPA analysis (Table S5). Three biological replicates for each sample were generated.
Nomenclatures on the RPPA heatmaps: name_of_antibody.species_of_antibody.status_of_antibody. V - antibody validated; C - validation of antibody in progress; Q - antibody nonspecific; E – under evaluation; antibodies raised in M - mouse, G - goat, R - rabbit, or T - rat.

[1] = Norm_5, replicates 1-3 and Average, relative to Norm_0

CN(C)c1cccc(Nc2cc(-c3ccccc3)nc(C3CCNCC3)n2)c1 [ARN22089, N1,N1-dimethyl-N3-(6-phenyl-2-(piperidin-4-yl)pyrimidin-4-yl)benzene-1,3-diamine]
ATRX.R.C RPPA signal, normalized [1]: 0.868 and 1.119 and 1.361 and 1.116 | ATR_pS428.R.C RPPA signal, normalized [1]: 1.018 and 1.013 and 1.046 and 1.026 | AceCS1.R.V RPPA signal, normalized [1]: 1.085 and 0.933 and 1.019 | Akt1.R.V RPPA signal, normalized [1]: 0.915 and 0.974 and 0.812 and 0.900 | Akt1_pS473.R.V RPPA signal, normalized [1]: 1.006 and 0.879 and 0.961 | Akt2.R.V RPPA signal, normalized [1]: 0.917 (2×) and 0.925 and 0.908 | Akt2_pS474.R.C RPPA signal, normalized [1]: 1.056 and 1.115 | Akt.R.V RPPA signal, normalized [1]: 0.986 and 0.968 and 1.009 | Akt_pS473.R.V RPPA signal, normalized [1]: 2.087 and 1.212 and 1.121 and 1.473 | Akt_pT308.R.V RPPA signal, normalized [1]: 1.212 and 0.937 and 1.110 | Ambra1_pS52.R.C RPPA signal, normalized [1]: 0.888 and 0.910 and 0.903 and 0.900 | Annexin.I.M.V RPPA signal, normalized [1]: 0.981 and 1.012 and 1.278 | Annexin.VII.M.V RPPA signal, normalized [1]: 1.019 and 0.975 and 0.977 and 0.990 | Atg3.R.V RPPA signal, normalized [1]: 1.081 and 0.975 and 1.056 | Atg4B.R.C RPPA signal, normalized [1]: 1.096 and 1.370 and 1.167 | Atg5.R.C RPPA signal, normalized [1]: 1.011 and 1.078 and 1.020 | Atg7.R.V RPPA signal, normalized [1]: 1.022 and 1.027 | Aurora.A.R.C RPPA signal, normalized [1]: 0.652 and 0.973 and 0.927 and 0.851 | Aurora.ABC_pT288_pT232_pT198.R.C RPPA signal, normalized [1]: 0.793 and 0.871 and 0.899 and 0.855 | Aurora.B.R.V RPPA signal, normalized [1]: 0.896 and 1.084 and 0.923 and 0.968 | Axl.R.V RPPA signal, normalized [1]: 0.968 and 1.169 and 1.152 and 1.097 | B7.H3.R.C RPPA signal, normalized [1]: 1.106 and 0.952 and 0.992 and 1.017 | B7.H4.R.C RPPA signal, normalized [1]: 1.026 and 0.982 and 1.007 and 1.005 | B.Raf.R.C RPPA signal, normalized [1]: 1.062 and 1.061 | B.Raf_pS445.R.V RPPA signal, normalized [1]: 1.018 and 1.017 and 1.057 and 1.031 | BAP1.M.V RPPA signal, normalized [1]: 0.935 and 0.995 and 0.932 and 0.954 | BCL2A1.R.V RPPA signal, normalized [1]: 1.271 and 0.801 and 1.003 | BMK1.Erk5_pT218_Y220.R.V RPPA signal, normalized [1]: 0.965 and 0.943 and 0.924 | BRCA1.M.C RPPA signal, normalized [1]: 0.876 and 0.959 and 0.998 and 0.944 | BRD4.R.V RPPA signal, normalized [1]: 1.085 and 1.161 and 1.113 | Bad_pS112.R.V RPPA signal, normalized [1]: 1.029 and 1.014 and 1.062 and 1.035 | Bak.R.C RPPA signal, normalized [1]: 1.012 and 1.001 and 1.061 and 1.025 | Bax.R.V RPPA signal, normalized [1]: 1.015 and 1.032 and 0.955 and 1.001 | Bcl2.R.C RPPA signal, normalized [1]: 0.966 and 1.014 and 0.939 and 0.973 | Bcl.xL.R.V RPPA signal, normalized [1]: 1.144 and 0.772 and 0.984 | Beclin.R.C RPPA signal, normalized [1]: 0.940 and 1.010 and 0.868 and 0.939 | BiP.GRP78.M.C RPPA signal, normalized [1]: 0.904 and 0.981 and 0.932 and 0.939 | Bid.R.C RPPA signal, normalized [1]: 1.008 and 0.999 and 1.060 and 1.022 | Bim.R.V RPPA signal, normalized [1]: 0.866 and 0.980 and 0.919 | X4E.BP1.R.V RPPA signal, normalized [1]: 0.986 and 1.022 and 1.747 and 1.252 | X4E.BP1_pS65.R.V RPPA signal, normalized [1]: 1.142 and 1.063 and 0.945 and 1.050 | X4E.BP1_pT37_T46.R.V RPPA signal, normalized [1]: 1.104 and 1.054 (2×) | X14.3.3.zeta.R.V RPPA signal, normalized [1]: 0.999 and 1.014 | X14.3.3βR.V RPPA signal, normalized [1]: 0.972 and 0.950 and 1.017 and 0.980 | X14.3.3εM.C RPPA signal, normalized [1]: 0.936 and 0.999 and 0.976 and 0.971 | X53BP1.R.V RPPA signal, normalized [1]: 0.978 and 0.924 and 0.982 | b.Actin.R.C RPPA signal, normalized [1]: 0.918 and 0.939 and 0.975 | b.Catenin.R.V RPPA signal, normalized [1]: 0.994 and 0.895 and 0.845 | b.Catenin_pT41_S45.R.V RPPA signal, normalized [1]: 1.007 and 0.992 and 1.022 | c.Abl.R.V RPPA signal, normalized [1]: 1.034 and 1.085 and 1.017 | c.Abl_pY412.R.C RPPA signal, normalized [1]: 0.992 and 0.994 and 1.009 | c.IAP2.R.C RPPA signal, normalized [1]: 1.048 and 1.023 | C.Raf.R.C normalized signal (Norm_5 Average): 0.955 | C.Raf_pS338.R.V normalized signal (Norm_5 Average): 1.097 | CA9.R.C normalized signal (Norm_5 Average): 0.944 | CD2.M.C normalized signal (Norm_5 Average): 0.959 | CD4.R.V normalized signal (Norm_5 Average): 1.051 | CD5.M.C normalized signal (Norm_5 Average): 0.995 | CD20.R.C normalized signal (Norm_5 Average): 0.920 | CD26.R.V normalized signal (Norm_5 Average): 0.984 | CD29.M.V normalized signal (Norm_5 Average): 0.963 | CD38.R.C normalized signal (Norm_5 Average): 1.035 | CD44.R.C normalized signal (Norm_5 Average): 0.944 | CD45.M.V normalized signal (Norm_5 Average): 0.967 | CD49b.M.V normalized signal (Norm_5 Average): 0.979 | CD68.M.C normalized signal (Norm_5 Average): 0.978 | CD74.M.V normalized signal (Norm_5 Average): 0.927 | CD134.R.V normalized signal (Norm_5 Average): 0.971 | CD171.M.V normalized signal (Norm_5 Average): 0.783 | CDK9.R.V normalized signal (Norm_5 Average): 0.955 | CDKN2A.R.C normalized signal (Norm_5 Average): 0.941 | CDT1.R.V normalized signal (Norm_5 Average): 0.908 | CENP.A.R.V normalized signal (Norm_5 Average): 0.910 | CHD1L.R.V normalized signal (Norm_5 Average): 1.009 | COG3.R.V normalized signal (Norm_5 Average): 1.046 | CRABP1.R.C normalized signal (Norm_5 Average): 0.948 | CRABP2.R.V normalized signal (Norm_5 Average): 0.874 | CSK.R.C normalized signal (Norm_5 Average): 0.850 | Calnexin.R.V normalized signal (Norm_5 Average): 0.963 | Caspase.3.cleaved.R.C normalized signal (Norm_5 Average): 1.016 | Caspase.7.cleaved..R.C normalized signal (Norm_5 Average): 1.054 | Caspase.8.M.Q normalized signal (Norm_5 Average): 0.985
